Experimental findings from patent publication US9023864B2, “Indole derivatives as CRTH2 receptor antagonists” (Merck Sharp & Dohme Corp., priority 2009, dated 2015) are described below.

As usually defined, the Ki is a measure of affinity in units of concentration, obtained from inhibition or displacement. The low end stands for a stronger hold on the target, the high end for a looser hold on the target.

This assay addresses T1, hCRTH2 (Homo sapiens, UniProt Q9Y5Y4).
T1 construct: expressed in transfected cells; host or cells: HEK cell line expressing hCRTH2 (HEK-hCRTH2); membranes
T1 sequence (Q9Y5Y4 1-395): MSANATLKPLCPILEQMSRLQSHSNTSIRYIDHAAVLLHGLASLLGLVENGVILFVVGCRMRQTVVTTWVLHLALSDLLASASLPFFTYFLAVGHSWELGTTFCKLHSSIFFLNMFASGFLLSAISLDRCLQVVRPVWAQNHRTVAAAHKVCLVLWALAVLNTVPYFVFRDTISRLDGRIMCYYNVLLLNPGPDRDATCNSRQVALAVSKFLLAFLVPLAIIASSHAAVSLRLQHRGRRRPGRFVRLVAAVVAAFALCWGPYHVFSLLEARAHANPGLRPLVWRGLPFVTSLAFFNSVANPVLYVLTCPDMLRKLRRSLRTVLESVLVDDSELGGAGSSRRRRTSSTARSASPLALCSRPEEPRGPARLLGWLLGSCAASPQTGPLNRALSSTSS
The assay can be described thus: Radioligand binding assay ([3H]PGD2 competition, membranes from HEK-hCRTH2 cell line). The conditions noted are these: 0.7 nM [3H]PGD2, membrane protein from HEK-hCRTH2 cell line, 60 min at room temperature; values given as ranges. On the procedure: Radioligand Binding Assay.
Radioligand binding assays were performed at room temperature in 10 mM HEPES/KOH pH 7.4, 1 mM EDTA containing 10 mM MnCl2 and 0.7 nM [^3H]PGD2 (NEN, 171 Ci mmol^−1), in a final volume of 0.2 ml. Competing ligands were diluted in dimethylsulfoxide (Me2SO) that was kept constant at 1% (v/v) of the final incubation volume. The reaction was initiated by the addition of 8-20 μg of membrane protein prepared from a HEK-hCRTH2 cell line. Total and non-specific binding were determined in the absence and the presence of 10 μM PGD2, respectively. Under these conditions, specific binding (total minus non-specific) of the radioligand to the receptor reached equilibrium within 50 min and was stable up to 180 min. The reaction was routinely conducted for 60 min at room temperature and terminated by rapid filtration through prewetted Unifilters GF/C (Packard), using a Tomtec MachIII semi-automated harvester (for HEK-hCRTH2). The filters were then washed with 4 ml of the same buffer and residual radioligand bound to the filter was determined by liquid scintillation counting following equilibration in 25 μl Ultima Gold F™ (Unifilter) (Packard). The Ki (in nM) values for representative compounds of the present invention are as follows: ≦5: Examples 3.1, 5.1, 6.1, 7.1, 8.1/8A, 9.1, 26, 27.1, 28.1, 29.1, 30, 31.1, 31.3, 32.1, 32.4, 33.1, 34.1, 36.1, 38.1, 39, 40, 41; >5 and ≦10: Examples, 4, 5.3, 29.2; >10 and ≦50: Examples 1, 10, 14, 21, 22, 25, 31.4, 32.3, 35, 36.2, 37; >50 and ≦100: Examples 2, 5.4, 6.2, 27.2, 28.2; >100: Examples 3.2, 5.2, 7.2, 8.2, 9.2, 11, 12, 13, 15, 16, 17, 18, 19, 20, 23, 24, 31.2, 32.2, 33.2, 34.2, 38.2.

Consider `O=C(O)Cc1c2n(c3ccccc13)CC(n1nncc1-c1ccc(F)cc1)CC2` (stereo not drawn) [Example 20, {7-[5-(4-Fluoro-phenyl)-[1,2,3]triazol-1-yl]-6,7,8,9-tetrahydropyrido[1,2-α]indol-10-yl}-acetic acid], for which the inhibition constant (Ki) was over 100 nM.
`O=C(O)Cc1c2n(c3ccccc13)CC(n1nncc1COc1ccccc1)CC2` (stereo not drawn) [Example 21, [7-(5-Phenoxymethyl-[1,2,3]triazol-1-yl)-6,7,8,9-tetrahydropyrido[1,2-α]indol-10-yl]-acetic acid] had a Ki of 10 to 50 nM.
As for `O=C(O)Cc1c2n(c3ccccc13)CC(n1nncc1C(O)c1ccc(Br)cc1)CC2` (stereo not drawn) [Example 22, (7-{5-[(4-Bromo-phenyl)-hydroxy-methyl]-[1,2,3]triazol-1-yl}-6,7,8,9-tetrahydropyrido[1,2-α]indol-10-yl)-acetic acid], the figure is 10 to 50 nM.
As for `CC(C)(C)OC(=O)N1CCC(c2cnnn2C2CCc3c(CC(=O)O)c4ccccc4n3C2)CC1` (stereo not drawn) [Example 23, 4-[3-(10-Carboxymethyl-6,7,8,9-tetrahydropyrido[1,2-α]indol-7-yl)-3H-[1,2,3]triazol-4-yl]-piperidine-1-carboxylic acid tert-butyl ester], the figure is over 100 nM; as for `O=C(O)Cc1c2n(c3ccccc13)CC(n1nncc1C1CCCCC1)CC2` (stereo not drawn) [Example 24, [7-(5-Cyclohexyl-[1,2,3]triazol-1-yl)-6,7,8,9-tetrahydropyrido[1,2-α]indol-10-yl]-acetic acid], over 100 nM.
As for `O=C(O)Cc1c2n(c3ccccc13)CC(n1nncc1C1(O)c3ccccc3-c3ccccc31)CC2` (stereo not drawn) [Example 25, {7-[5-(9-Hydroxy-9H-fluoren-9-yl)-[1,2,3]triazol-1-yl]-6,7,8,9-tetrahydropyrido[1,2-α]indol-10-yl}-acetic acid], the figure is 10 to 50 nM; as for `C=C(c1ccc(F)cc1)c1cnnn1C1CCc2c(CC(=O)O)c3ccccc3n2C1` (stereo not drawn) [Example 26, (7-{5-[1-(4-Fluoro-phenyl)-vinyl]-[1,2,3]triazol-1-yl}-6,7,8,9-tetrahydropyrido[1,2-α]indol-10-yl)-acetic acid], at most 5 nM.
As for `O=C(O)Cc1c2n(c3ccccc13)C[C@H](n1nncc1C(c1ccc(F)cc1)c1ccc(F)cc1)CC2` [Example 30, ((R)-7-{5-[Bis-(4-fluoro-phenyl)-methyl]-[1,2,3]triazol-1-yl}-6,7,8,9-tetrahydropyrido[1,2-α]indol-10-yl)-acetic acid], the Ki was at most 5 nM.
As for `O=C(O)Cc1c2n(c3ccccc13)CC(n1nncc1C(O)(c1ccccc1)C(F)(F)F)CC2` (stereo not drawn) [Example 35, {7-[5-(2,2,2-trifluoro-1-hydroxy-1-phenyl-ethyl)-1H-1,2,3-triazol-1-yl]-6,7,8,9-tetrahydropyrido[1,2-a]indol-10-yl}acetic acid], the figure is 10 to 50 nM.
